US20190330220A1, “METHODS OF MAKING SUBSTITUTED PORPHYRIN PHARMACEUTICAL COMPOUNDS AND COMPOSITIONS” (Duke University, priority 2016, published 2019)
Read-outs that look alike come from different tables or passages of the source.

Key:
[1] = background statement; cited from earlier work
[2] = tested on: cells; conditions: compared with ethyl analogue, background statement; cited from earlier work
[3] = toxicity compared with analogous alkyl-chain Mn porphyrins
[4] = rat Comet assay (genotoxicity); conditions: pre-clinical studies
[5] = electrochemistry, Mn(III)/Mn(II) reduction potential; assay type: physicochemical
Method: (§1) Electrochemistry, electrospray-ionization mass spectrometry (ESI-MS), UV-visible spectroscopy and SOD-like activity were carried out as previously described.^29, 32. All quantum chemistry calculations have been performed at the M06-2X/6-311++G(2d,p)//M06-2X/6-31+G(d) DFT level^33-38 using the Gaussian 09 software.^39 All frequency calculations were carried out at […] and used to characterize minima and transition states. The solvent effect has been taken into account using the CPCM continuum solvation model^40 for N,N-dimethylformamide (DMF). The free energies of reactants, transition states, and products have been obtained from the ideal gas partition functions for the structures optimized in solution^40 and corrected to include the compression work of the gas^41 (or liberation free energy^42) to standard 1 mol L^−1 concentration. The coulombic stabilization energy due to the formation of ionic pairs in DMF has also been included in the final results by approximating each ion as a sphere, whose volume was considered the same as that of the solute cavity;^43 the distance between cation and anion in the ionic pair was taken as the sum of the two sphere radii.

[6] = SOD-like activity; assay type: biochemical
Method: as §1

[7] = lipophilicity of Mn porphyrin complex

Question: With `CC[n+]1ccccc1-c1c2nc(c(-c3cccc[n+]3CC)c3ccc([n-]3)c(-c3cccc[n+]3CC)c3nc(c(-c4cccc[n+]4CC)c4ccc1[n-]4)C=C3)C=C2.[Mn+3]` [MnTE-2-PyP^5+, Mn(III) meso-tetrakis-(N-ethylpyridinium-2-yl)porphyrins] as the molecule, how does the lipophilicity [1] read?
Answer: low lipophilicity

Question: For `CCCCCC[n+]1ccccc1-c1c2nc(c(-c3cccc[n+]3CCCCCC)c3ccc([n-]3)c(-c3cccc[n+]3CCCCCC)c3nc(c(-c4cccc[n+]4CCCCCC)c4ccc1[n-]4)C=C3)C=C2.[Mn+3]` [MnTnHex-2-PyP^5+, Mn(III) meso-tetrakis-(N-n-hexylpyridinium-2-yl)porphyrin], which accumulation in cells [2] is on record?
Answer: higher levels than its ethyl analogue

Question: For `CCCCOCC[n+]1ccccc1C1=C2C=CC3=[N+]2[Mn]24[n]5c1ccc5C(c1cccc[n+]1CCOCCCC)=C1C=CC(=[N+]12)C(c1cccc[n+]1CCOCCCC)=c1ccc([n]14)=C3c1cccc[n+]1CCOCCCC` [MnTnBuOE-2-PyP^5+, Mn(III) meso-tetrakis-(N-n-butoxyethylpyridinium-2-yl)porphyrin], which toxicity [3] is on record?
Answer: low toxicity

Question: And the “fold less toxic than analogous ortho alkyl MnP^5+” value ([3]; relative to analogous alkyl chains)?
Answer: 4-5 fold

Question: And the “genotoxicity in a rat Comet assay” value [4]?
Answer: lack of genotoxicity

Question: What about the “Mn(III)/Mn(II) reduction potential (E1/2)” value [5] of the same molecule?
Answer: high

Question: And the SOD-like activity [6]?
Answer: high

Question: And the lipophilicity [7]?
Answer: lipophilic
